Test results from patent EP0852148B1, “Products having anti-microbial activity” (SION MICROTEC LTD., priority 1997, dated 1998).
Structures can show the parent of a compound that is named as a salt. Where two headings read alike, the source gives them in different places.

Key:
[1] = test system: Staphylococcus aureus (SA); test: Inhibition zone on bacterial lawn on agar plate, daily sequential transfer of sample; format: cell-based
[2] = test system: Pseudonomas aeruginosa (PA); test: as above; format: cell-based
Procedure: (§1) A matrix made of cotton gauze 75 mm wide, in accordance with the British Pharmacopoeia, was soaked in 0.5% chlorohexidine gluconate (CHXG) aqueous solution at 25°C and dried by forced hot air at 60°C in a continuous process. The antimicrobial activity of the product was tested on lawns of several bacteria: Staphylococcus aureus (SA), S. epidermidis (SE), Escherichia coli (EC) and Pseudonomas aeruginosa (PA), inoculated on agar plates, by placing a sample of about 2 cm^2 on the surface of the plate, and measurement of the inhibition zone after growth of the bacteria for 18 hours at 37°C. After 24 hours, the sample was passed sequentially to another inoculated agar plate and the inhibition zone measured. This daily transfer procedure continued up to the loss of growth-inhibiting activity.
(§2) The data set forth in the Tables herein is presented as follows: a = no inhibition b = partial growth inhibition under matrix c = total growth inhibition under matrix d = growth inhibition beyond the matrix, but at less than 1 mm E x-y = growth inhibition in mm; x = minimum distance; y = maximum distance.

[3] = test system: Staphylococcus aureus (SA); test: as above; format: cell-based; conditions: for Growth Inhibition SA: procedure of Example 1 (cotton gauze)
Procedure: as §1, §2

S. epidermidis (SE) = test: as above; format: cell-based
Procedure: as §1, with “The” for “A matrix made of cotton gauze 75 mm wide, in accordance with the British Pharmacopoeia, was soaked in 0.5% chlorohexidine gluconate (CHXG) aqueous solution at 25°C and dried by forced hot air at 60°C in a continuous process. The”
as §2

Escherichia coli (EC) = test: as above; format: cell-based
Procedure: as §1, with “The” for “A matrix made of cotton gauze 75 mm wide, in accordance with the British Pharmacopoeia, was soaked in 0.5% chlorohexidine gluconate (CHXG) aqueous solution at 25°C and dried by forced hot air at 60°C in a continuous process. The”
as §2

[4] = in vivo; cited from earlier work
[5] = test system: Staphylococcus aureus (SA); test: Inhibition zone on bacterial lawn on agar plate, daily sequential transfer of sample; format: cell-based; conditions: procedure of Example 1 (cotton gauze)
Procedure: as §1, with “activity. The data set forth in the Tables herein is presented as follows: a = no inhibition b = partial growth inhibition under matrix c = total growth inhibition under matrix d = growth inhibition beyond the matrix, but at less than 1 mm E x-y = growth inhibition in mm; x = minimum distance; y = maximum distance.” for “activity.”

[6] = test system: human immunodeficiency virus type I; conditions: aqueous solution, in 15 seconds; cited from earlier work
[7] = Matrix Cellular triacetate, CHXH 0.1% or CHXG 1.0%
[8] = Matrix Nylon, CHXH 0.1% or CHXG 1.0%
[9] = Matrix Polyethylene, CHXH 0.1% or CHXG 1.0%
[10] = Matrix Polypropylene, CHXH 0.1% or CHXG 1.0%
[11] = non-woven matrix (polyethylene, viscose and cotton), CHXG Concentration 2 %
[12] = non-woven matrix (polyethylene, viscose and cotton), CHXG Concentration 5 %
[13] = Matrix Nylon, CHXH 0.1% or CHXG 1.0%, hydrochloride
[14] = Matrix Polyethylene, CHXH 0.1% or CHXG 1.0%, hydrochloride
[15] = Matrix Polypropylene, CHXH 0.1% or CHXG 1.0%, hydrochloride

N=C(NCCCCCCNC(=N)NC(=N)Nc1ccc(Cl)cc1)NC(=N)Nc1ccc(Cl)cc1 [CHXG, chlorohexidine gluconate]
Microorganism Growth Inhibition SA [1, 7]: E 4-5 mm | Microorganism Growth Inhibition SA [1, 8]: E 3-5 mm | Microorganism Growth Inhibition SA [1, 9]: E 3-5 mm | Microorganism Growth Inhibition SA [1, 10]: E 2-5 mm | Microorganism Growth Inhibition SA [1, 11]: E 5-7 mm | Microorganism Growth Inhibition SA [1, 12]: E 4-5 mm | Microorganism Growth Inhibition PA [2, 7]: E 1 mm | Microorganism Growth Inhibition PA [2, 8]: d (growth inhibition beyond the matrix, but at less than 1 mm) | Microorganism Growth Inhibition PA [2, 9]: E 1 mm | Microorganism Growth Inhibition PA [2, 11]: d (growth inhibition beyond the matrix, but at less than 1 mm) | Microorganism Growth Inhibition PA [2, 12]: E 1-2 mm | Growth Inhibition SA ([3]; Day 1): E 4-5 mm | Growth Inhibition SA ([3]; Day 2): E 3-4 mm | Growth Inhibition SA ([3]; Day 3): E 2-3 mm | Growth Inhibition SA ([3]; Day 4): E 2-3 mm | Microorganism Growth Inhibition SE (S. epidermidis (SE); [7]): E 4 mm | Microorganism Growth Inhibition SE (S. epidermidis (SE); [9]): E 3 mm | Microorganism Growth Inhibition SE (S. epidermidis (SE); [10]): E 2-3 mm | Microorganism Growth Inhibition SE (S. epidermidis (SE); [11]): E 3-5 mm | Microorganism Growth Inhibition SE (S. epidermidis (SE); [12]): E 4-5 mm | Microorganism Growth Inhibition EC (Escherichia coli (EC); [7]): E 3-4 mm | Microorganism Growth Inhibition EC (Escherichia coli (EC); [8]): E 2-4 mm | Microorganism Growth Inhibition EC (Escherichia coli (EC); [9]): E 2-3 mm | Microorganism Growth Inhibition EC (Escherichia coli (EC); [10]): E 2-4 mm | Microorganism Growth Inhibition EC (Escherichia coli (EC); [11]): E 2-3 mm | Microorganism Growth Inhibition EC (Escherichia coli (EC); [12]): E 3-4 mm

CCCCCCCCCCCCCCCC[n+]1ccccc1.[Cl-] [Example 844, Cetyl piridinium chloride]
Growth Inhibition SA ([3]; Day 1): E 3-4 mm | Growth Inhibition SA ([3]; Day 2): E 5-6 mm | Growth Inhibition SA ([3]; Day 3): E 3-4 mm | Growth Inhibition SA ([3]; Day 4): E 2-4 mm

N=C(NCCCCCCNC(=N)NC(=N)Nc1ccc(Cl)cc1)NC(=N)Nc1ccc(Cl)cc1 [CHXH, chlorohexidine hydrochloride]
Microorganism Growth Inhibition SA [1, 13]: E 3-4 mm | Microorganism Growth Inhibition SA [1, 14]: E 3-4 mm | Microorganism Growth Inhibition SA [1, 15]: E 2-4 mm | Microorganism Growth Inhibition PA [2]: E 1-2 mm | Microorganism Growth Inhibition SA [3]: E 5-6 mm | Microorganism Growth Inhibition SE (S. epidermidis (SE)): E 3-4 mm | Microorganism Growth Inhibition SE (S. epidermidis (SE); [8]): E 2-3 mm | Microorganism Growth Inhibition SE (S. epidermidis (SE); [14]): E 2 mm | Microorganism Growth Inhibition SE (S. epidermidis (SE); [15]): E 1-2 mm | Microorganism Growth Inhibition EC (Escherichia coli (EC)): E 2-4 mm | Microorganism Growth Inhibition EC (Escherichia coli (EC); [13]): E 2-3 mm | Microorganism Growth Inhibition EC (Escherichia coli (EC); [14]): E 1-3 mm | Microorganism Growth Inhibition EC (Escherichia coli (EC); [15]): E 1-3 mm

Clc1nc(Cl)nc(Cl)n1 [cyanuric chloric linking group, cyanuric chloride]
LD50 [4]: 18 mg/kg

CCCCCCCCCCCCCCCC[N+](C)(C)Cc1ccccc1.[Cl-] [Example 861, Benzyl dimethyl hexocylammonium chloride]
Growth Inhibition SA ([3]; Day 1): E 3-5 mm | Growth Inhibition SA ([3]; Day 2): E 3-4 mm | Growth Inhibition SA ([3]; Day 3): E 3-4 mm | Growth Inhibition SA ([3]; Day 4): E 2-3 mm

Bacitracin [Example 846]
Growth Inhibition SA ([5]; Day 1): E 4-6 mm | Growth Inhibition SA ([5]; Day 2): E 1-3 mm

[H]/N=C(\N/C(=N/[H])NCCCCCCNC(=N)NC(=N)Nc1ccc(Cl)cc1)Nc1ccc(Cl)cc1 [chlorhexidine]
inactivation of human immunodeficiency virus type I [6]: 100%

Septabicdidecyl dimethyl ammonium bromide [Example 868]
Growth Inhibition SA ([3]; Day 1): E 5-6 mm | Growth Inhibition SA ([3]; Day 2): E 5-6 mm | Growth Inhibition SA ([3]; Day 3): E 4-5 mm | Growth Inhibition SA ([3]; Day 4): E 3-4 mm
